{"source": "patent US20250230193A1", "about": "“CYCLIC COMPOUND HAVING SELECTIVE KRAS INHIBITORY EFFECT ON HRAS AND NRAS” (CHUGAI SEIYAKU KABUSHIKI KAISHA, priority 2022, published 2025)", "key": {"[1]": {"target": "GDP-bound NRAS wild-type protein (Homo sapiens, UniProt P01111)", "sequence (P01111 whole entry)": "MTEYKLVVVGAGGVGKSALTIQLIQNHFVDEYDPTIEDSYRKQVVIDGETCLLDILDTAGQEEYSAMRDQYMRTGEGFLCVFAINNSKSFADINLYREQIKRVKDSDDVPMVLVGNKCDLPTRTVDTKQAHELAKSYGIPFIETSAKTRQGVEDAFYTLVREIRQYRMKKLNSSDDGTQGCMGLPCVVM", "experiment": "Binding to NRAS by surface plasmon resonance (SPR), Single Cycle Kinetics", "conditions": "for NRAS/KRAS (ratio of KD value with respect to NRAS to KD value with respect to KRAS) / NRAS/KRAS (ratio of KD value for NRAS to KD value for KRAS): GDP-bound NRAS wild-type vs GDP-bound KRAS wild-type"}, "[2]": {"target": "GDP-bound HRAS wild-type protein (Homo sapiens, UniProt P01112)", "sequence (P01112 whole entry)": "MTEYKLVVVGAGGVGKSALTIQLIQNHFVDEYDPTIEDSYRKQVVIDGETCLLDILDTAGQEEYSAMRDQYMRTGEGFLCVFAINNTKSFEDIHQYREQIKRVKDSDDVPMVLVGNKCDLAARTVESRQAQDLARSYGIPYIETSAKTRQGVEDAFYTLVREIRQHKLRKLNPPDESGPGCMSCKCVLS", "experiment": "Binding to HRAS by surface plasmon resonance (SPR), Single Cycle Kinetics", "conditions": "for HRAS/KRAS (ratio of KD value with respect to HRAS to KD value with respect to KRAS) / HRAS/KRAS (ratio of KD value for HRAS to KD value for KRAS): GDP-bound HRAS wild-type vs GDP-bound KRAS wild-type"}, "[3]": {"conditions": "KD ratio NRAS/KRAS, class symbols"}, "[4]": {"conditions": "KD ratio HRAS/KRAS, class symbols"}}, "note": "Where a SMILES comes first, the peptide text is derived from it. Bridges are numbered along the chain shown (N, C = ends). [ ]: non-standard residue; d: D form. The star is where a group is joined. hPhe(3-Cl-4-CF3) = N[C@@H](CCc1ccc(C(F)(F)F)c(Cl)c1)C(=O)O; NPrPhe(4-CF3) = CCCN[C@@H](Cc1ccc(C(F)(F)F)cc1)C(=O)O; Pro(4-spirocPr) = O=C(O)[C@@H]1CC2(CC2)CN1; NMeGly(cPent) = CN[C@H](C(=O)O)C1CCCC1; NMeD = CN[C@@H](CC(=O)O)C(=O)O; NMeL = CN[C@@H](CC(C)C)C(=O)O; Morpholide = C1CN(*)CCO1; Ac5c = NC1(C(=O)O)CCCC1; Sar = CNCC(=O)O", "data": [{"compound": "CCC[C@@H]1C[C@H]2C(=O)NC3(CC(C)(C)C3)C(=O)N(C)[C@@H](C3CCCC3)C(=O)N(C)[C@H](C(=O)N(C)C)CC(=O)N(C)[C@@H](CC)C(=O)N[C@@H]([C@@H](C)CC)C(=O)N(C)CC(=O)N(C)[C@H]3C/C=C\\CCN(C3=O)[C@@H](Cc3ccc(C)cc3)C(=O)N(C)CC(=O)N[C@@H](CCc3cc(F)c(C(F)(F)F)c(F)c3)C(=O)N2C1", "note": "[PP2208]", "values": [{"measurement": "NRAS/KRAS (ratio of KD value with respect to NRAS to KD value with respect to KRAS)", "setting": "[1]; SPR", "value": "A (a compound having 10 or more and less than 20 is denoted as A)"}, {"measurement": "HRAS/KRAS (ratio of KD value with respect to HRAS to KD value with respect to KRAS)", "setting": "[2]; SPR", "value": "A (a compound having 10 or more and less than 20 is denoted as A)"}]}, {"compound": "CCC[C@H]1C(=O)N[C@@H]([C@@H](C)CC)C(=O)N2C[C@@H](OC)C[C@H]2C(=O)N(C)[C@H]2C/C=C\\CCN(C2=O)[C@@H](Cc2ccc(C)cc2)C(=O)N(C)CC(=O)N[C@@H](CCc2cc(F)c(C(F)(F)F)c(F)c2)C(=O)N2C[C@H](OCC)C[C@H]2C(=O)NC2(CCC2)C(=O)N(C)[C@@H](C2CCCC2)C(=O)N(C)[C@H](C(=O)N(C)C)CC(=O)N1C", "note": "[PP2550]", "values": [{"measurement": "NRAS/KRAS (ratio of KD value with respect to GDP-bound NRAS wild-type protein to KD value with respect to KRAS)", "setting": "[1]; [3]", "value": "A (a compound having 10 or more and less than 20 is denoted as A)"}, {"measurement": "HRAS/KRAS (ratio of KD value with respect to GDP-bound HRAS wild-type protein to KD value with respect to KRAS)", "setting": "[2]; [4]", "value": "B (a compound having 3 or more and less than 10 is denoted as B)"}]}, {"compound": "CCO[C@@H]1C[C@H]2C(=O)NC3(CC(C)(C)C3)C(=O)N(C)[C@@H](C3CCCC3)C(=O)N(C)[C@H](C(=O)N(C)CC)CC(=O)N(C)[C@@H](CC)C(=O)N[C@@H]([C@@H](C)CC)C(=O)N(C)CC(=O)N(C)[C@H]3C/C=C\\CCN(C3=O)[C@@H](Cc3ccc(C(F)(F)F)cc3)C(=O)N(C)CC(=O)N[C@@H](CCc3ccc(Cl)c(Cl)c3)C(=O)N2C1", "note": "[PP2822]", "values": [{"measurement": "NRAS/KRAS (ratio of KD value with respect to GDP-bound NRAS wild-type protein to KD value with respect to KRAS)", "setting": "[1]; [3]", "value": "A (a compound having 10 or more and less than 20 is denoted as A)"}, {"measurement": "HRAS/KRAS (ratio of KD value with respect to GDP-bound HRAS wild-type protein to KD value with respect to KRAS)", "setting": "[2]; [4]", "value": "A (a compound having 10 or more and less than 20 is denoted as A)"}]}, {"compound": "CCO[C@@H]1C[C@H]2C(=O)NC3(CCCC3)C(=O)N(C)[C@@H](C3CCCC3)C(=O)N(C)[C@H](C(=O)N(C)C)CC(=O)N(C)[C@@H](CC(C)C)C(=O)N[C@@H]([C@@H](C)CC)C(=O)N(C)CC(=O)N(C)[C@H]3CCCCCN(C3=O)[C@@H](Cc3ccc(C(F)(F)F)cc3)C(=O)N(C)CC(=O)N[C@@H](CCc3cc(F)c(C(F)(F)F)c(F)c3)C(=O)N2C1", "note": "[PP0468]", "values": [{"measurement": "NRAS/KRAS (ratio of KD value with respect to GDP-bound NRAS wild-type protein to KD value with respect to KRAS)", "setting": "[1]; KD ratio NRAS/KRAS, SPR", "value": "B (a compound having 3 or more and less than 10 is denoted as B)"}, {"measurement": "HRAS/KRAS (ratio of KD value with respect to GDP-bound HRAS wild-type protein to KD value with respect to KRAS)", "setting": "[2]; KD ratio HRAS/KRAS, SPR", "value": "B (a compound having 3 or more and less than 10 is denoted as B)"}]}, {"compound": "CCO[C@@H]1C[C@H]2C(=O)NC3(CC(F)(F)C3)C(=O)N(C)[C@@H](C(CC)CC)C(=O)N(C)[C@H](CC)CC(=O)N(C)[C@@H](CC)C(=O)N[C@@H]([C@@H](C)CC)C(=O)N(C)CC(=O)N(C)[C@H]3C/C=C\\CCN(C3=O)[C@@H](Cc3ccc(C(F)(F)F)cc3)C(=O)N(C)CC(=O)N[C@@H](CCc3cc(F)c(C(F)(F)F)c(F)c3)C(=O)N2C1", "note": "[PP1626]", "values": [{"measurement": "NRAS/KRAS (ratio of KD value for NRAS to KD value for KRAS)", "setting": "[1]; SPR", "value": "A (a compound having 10 or more and less than 20 is denoted as A)"}, {"measurement": "HRAS/KRAS (ratio of KD value for HRAS to KD value for KRAS)", "setting": "[2]; SPR", "value": "A (a compound having 10 or more and less than 20 is denoted as A)"}]}, {"compound": "CCO[C@@H]1C[C@H]2C(=O)NC3(CC(C)(C)C3)C(=O)N(C)[C@@H](C(CC)CC)C(=O)N(C)[C@H](C(=O)N(C)C)CC(=O)N(C)[C@@H](C(C)C)C(=O)N[C@@H]([C@@H](C)CC)C(=O)N(C)CC(=O)N(C)[C@H]3C/C=C\\CCN(C3=O)[C@@H](Cc3ccc(C(F)(F)F)cc3)C(=O)N(C)CC(=O)N[C@@H](CCc3ccc(Cl)c(Cl)c3)C(=O)N2C1", "note": "[PP2181]", "values": [{"measurement": "NRAS/KRAS (ratio of KD value with respect to NRAS to KD value with respect to KRAS)", "setting": "[1]; SPR", "value": "AA (a compound having 20 or more is denoted as AA)"}, {"measurement": "HRAS/KRAS (ratio of KD value with respect to HRAS to KD value with respect to KRAS)", "setting": "[2]; SPR", "value": "A (a compound having 10 or more and less than 20 is denoted as A)"}]}, {"compound": "CCCN(C)C(=O)[C@@H]1CC(=O)N(C)[C@@H](CC(F)(F)F)C(=O)N[C@@H]([C@@H](C)CC)C(=O)N(C)CC(=O)N(C)[C@H]2C/C=C\\CCN(C2=O)[C@@H](Cc2ccc(C(F)(F)F)cc2)C(=O)N(C)CC(=O)N[C@@H](CCc2cc(F)c(C(F)(F)F)c(F)c2)C(=O)N2C[C@H](OCC)C[C@H]2C(=O)NC2(CCC2)C(=O)N(C)[C@@H](C2CCCC2)C(=O)N1C", "note": "[PP1702]", "values": [{"measurement": "NRAS/KRAS (ratio of KD value for NRAS to KD value for KRAS)", "setting": "[1]; SPR", "value": "A (a compound having 10 or more and less than 20 is denoted as A)"}, {"measurement": "HRAS/KRAS (ratio of KD value for HRAS to KD value for KRAS)", "setting": "[2]; SPR", "value": "A (a compound having 10 or more and less than 20 is denoted as A)"}]}, {"compound": "CCCN1C(=O)CN(C)C(=O)CN(C)C(=O)[C@H]([C@@H](C)CC)NC(=O)[C@H](CC(C)C)N(C)C(=O)C[C@@H](C(=O)N2CCOCC2)N(C)C(=O)[C@H](C2CCCC2)N(C)C(=O)C2(CCCC2)NC(=O)[C@@H]2CC3(CC3)CN2C(=O)[C@H](CCc2ccc(C(F)(F)F)c(Cl)c2)NC(=O)CN(C)C(=O)[C@@H]1Cc1ccc(C(F)(F)F)cc1", "note": "[PP0261] ([NMeL]I[Sar][Sar][NPrPhe(4-CF3)][Sar][hPhe(3-Cl-4-CF3)][Pro(4-spirocPr)][Ac5c][NMeGly(cPent)][NMeD]-Morpholide; lactam N-11)", "values": [{"measurement": "NRAS/KRAS (ratio of KD for GDP-bound NRAS wild-type to KD for KRAS)", "setting": "[1]; KD ratio NRAS/KRAS, SPR", "value": "B (a compound having 3 or more and less than 10 is denoted as B)"}, {"measurement": "HRAS/KRAS (ratio of KD for GDP-bound HRAS wild-type to KD for KRAS)", "setting": "[2]; KD ratio HRAS/KRAS, SPR", "value": "C (A compound having a KD ratio of 0.1 or more and less than 3 is denoted as C)"}]}]}
